Assay results as given in the supplement of paper PMC10307832.

Tests used:
Experiment in all cases: relative viability (nuclei count vs DMSO), 5 days (fraction); higher = more cells survive
AZ628 + Linsitinib = compound: CC1=C(C=C(C=C1)NC(=O)C2=CC(=CC=C2)C(C)(C)C#N)NC3=CC4=C(C=C3)N=CN(C4=O)C [AZ628] + C[C@]1(O)C[C@@H](c2nc(-c3ccc4ccc(-c5ccccc5)nc4c3)c3c(N)nccn32)C1 [Linsitinib] (partner 1 µM)
Procedure, shortened: (§1)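 After 5 days of treatment, lung cancer cells in 1536-well plates were fixed and stained in a single step (final 0.05% Triton X-100, 1% formaldehyde, 1 ug/ml Hoechst) and their nuclei counted on 4× images. Treatment had been applied by pin tool the day after seeding as one drug alone or as a fixed anchor-drug dose with five library-drug doses (not always all listed) in √10 steps. Relative viability is the nuclei count of treated wells divided by that of vehicle wells, and values are medians of duplicate plates.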

QS11 + AZD7762 = compound: C1CC2=C(C1)C=C(C=C2)OC3=NC(=C4C(=N3)N(C=N4)CC5=CC=C(C=C5)C6=CC=CC=C6)N[C@@H](CC7=CC=CC=C7)CO [QS11] + NC(=O)Nc1cc(-c2cccc(F)c2)sc1C(=O)N[C@H]1CCCNC1 [AZD7762] (partner 0.2 µM)
Procedure, shortened: as §1

AZ628 + Palbociclib = compound: CC1=C(C=C(C=C1)NC(=O)C2=CC(=CC=C2)C(C)(C)C#N)NC3=CC4=C(C=C3)N=CN(C4=O)C [AZ628] + CC(=O)c1c(C)c2cnc(Nc3ccc(N4CCNCC4)cn3)nc2n(C2CCCC2)c1=O [Palbociclib] (partner 0.5 µM)
Procedure, shortened: as §1

AZ628 + Tozasertib = compound: CC1=C(C=C(C=C1)NC(=O)C2=CC(=CC=C2)C(C)(C)C#N)NC3=CC4=C(C=C3)N=CN(C4=O)C [AZ628] + Cc1cc(Nc2cc(N3CCN(C)CC3)nc(Sc3ccc(NC(=O)C4CC4)cc3)n2)n[nH]1 [Tozasertib] (partner 0.1 µM)
Procedure, shortened: as §1

Row | Cell Line | relative viability (AZ628 + Linsitinib; first compound 0.08 µM) | relative viability (AZ628 + Linsitinib; first compound 0.253 µM) | relative viability (AZ628 + Linsitinib; first compound 0.8 µM) | relative viability (AZ628 + Linsitinib; first compound 2.53 µM) | relative viability (AZ628 + Linsitinib; first compound 8 µM) | relative viability (QS11 + AZD7762; first compound 0.08 µM) | relative viability (QS11 + AZD7762; first compound 0.253 µM) | relative viability (QS11 + AZD7762; first compound 0.8 µM) | relative viability (QS11 + AZD7762; first compound 2.53 µM) | relative viability (QS11 + AZD7762; first compound 8 µM) | relative viability (AZ628 + Palbociclib; first compound 0.08 µM) | relative viability (AZ628 + Palbociclib; first compound 0.253 µM) | relative viability (AZ628 + Palbociclib; first compound 0.8 µM) | relative viability (AZ628 + Palbociclib; first compound 2.53 µM) | relative viability (AZ628 + Palbociclib; first compound 8 µM) | relative viability (AZ628 + Tozasertib; first compound 0.08 µM) | relative viability (AZ628 + Tozasertib; first compound 0.253 µM) | relative viability (AZ628 + Tozasertib; first compound 0.8 µM) | relative viability (AZ628 + Tozasertib; first compound 2.53 µM) | relative viability (AZ628 + Tozasertib; first compound 8 µM)
1 | NCI-H441 | 0.64 | 0.494 | 0.549 | 0.425 | 0.396 | 1.02 | 1.39 | 0.963 | 0.964 | 0.942 | 0.184 | 0.18 | 0.147 | 0.145 | 0.151 | 0.647 | 0.613 | 0.676 | 0.556 | 0.445
2 | LU99A | 0.485 | 0.444 | 0.686 | 0.678 | 0.274 | 0.326 | 0.348 | 0.398 | 0.362 | 0.239 | 0.366 | 0.368 | 0.381 | 0.442 | 0.369 | 0.272 | 0.242 | 0.265 | 0.231 | 0.257
3 | PC-14 | 0.946 | 0.862 | 0.946 | 0.981 | 0.703 | 0.276 | 0.278 | 0.369 | 0.318 | 0.443 | 0.521 | 0.517 | 0.343 | 0.455 | 0.219 | 0.502 | 0.526 | 0.612 | 0.564 | 0.44
4 | NCI-H2085 | 0.851 | 0.939 | 0.972 | 0.879 | 0.781 | 1.01 | 1.06 | 0.791 | 1 | 0.991 | 0.478 | 0.445 | 0.496 | 0.493 | 0.43 | 0.754 | 0.899 | 0.935 | 0.743 | 0.382
5 | NCI-H1395 | 1.21 | 1.18 | 1.23 | 1.07 | 1.05 | 0.389 | 0.382 | 0.4 | 0.432 | 0.404 | 0.614 | 0.612 | 0.622 | 0.609 | 0.631 | 0.814 | 0.809 | 0.753 | 0.742 | 0.681
6 | NCI-H1666 | 0.809 | 0.57 | 0.551 | 0.753 | 0.553 | 0.959 | 0.806 | 0.682 | 0.727 | 0.63 | 0.678 | 0.666 | 0.683 | 0.71 | 0.685 | 0.605 | 0.567 | 0.565 | 0.551 | 0.479
7 | NCI-H647 | 1.36 | 1.27 | 1.07 | 1.19 | 1.05 | 0.441 | 0.302 | 0.592 | 0.385 | 0.565 | 0.493 | 0.43 | 0.322 | 0.357 | 0.289 | 0.293 | 0.262 | 0.296 | 0.269 | 0.146
8 | A-427 | 1 | 0.898 | 0.839 | 0.857 | 0.496 | 0.673 | 0.744 |  | 0.856 | 1.05 | 0.475 | 0.446 | 0.497 | 0.475 | 0.427 | 0.155 | 0.138 | 0.146 | 0.142 | 0.146
9 | NCI-H1915 | 1.08 | 1.11 | 1.07 | 0.85 | 0.683 | 0.693 | 0.702 |  | 0.753 | 0.634 | 0.398 | 0.392 | 0.316 | 0.316 | 0.205 | 0.429 | 0.412 | 0.377 | 0.309 | 0.206
10 | NCI-H1355 | 0.846 | 0.93 | 0.765 | 0.806 | 0.655 | 0.729 | 0.607 | 0.666 | 0.614 | 0.759 | 0.411 | 0.397 | 0.388 | 0.373 | 0.294 | 0.548 | 0.512 | 0.628 | 0.495 | 0.269
11 | HCC-15 | 0.918 | 0.799 | 0.704 | 0.695 | 0.414 | 1.27 | 1.26 | 0.877 | 1.22 | 0.461 | 0.708 | 0.718 | 0.656 | 0.677 | 0.421 | 0.389 | 0.491 | 0.273 | 0.337 | 0.135
12 | HCC-78 | 0.704 | 0.524 | 0.479 | 0.499 | 0.518 | 0.677 | 0.527 | 0.552 | 0.703 | 0.703 | 0.478 | 0.454 | 0.516 | 0.53 | 0.449 | 0.445 | 0.383 | 0.463 | 0.346 | 0.465
13 | NCI-H23 | 0.562 | 0.481 | 0.28 | 0.376 | 0.32 | 0.229 | 0.252 | 0.278 | 0.208 | 0.216 | 0.476 | 0.551 | 0.347 | 0.23 | 0.265 | 0.286 | 0.263 | 0.323 | 0.26 | 0.213
14 | NCI-H838 | 0.995 | 0.977 | 1.11 | 0.896 | 0.883 | 1 | 0.87 | 0.844 | 0.905 | 1.03 | 0.214 | 0.205 | 0.203 | 0.224 | 0.192 | 0.27 | 0.302 | 0.281 | 0.288 | 0.212
15 | NCI-H1793 | 1.32 | 1.11 | 1.09 | 0.687 | 0.602 | 0.449 | 0.519 | 0.514 | 0.407 | 0.418 | 0.35 | 0.403 | 0.305 | 0.266 | 0.255 | 0.488 | 0.335 | 0.372 | 0.264 | 0.18
16 | LCLC-103H | 1.02 | 1.15 | 1.15 | 1.07 | 1.04 | 0.861 | 0.775 |  | 0.772 | 0.881 | 0.478 | 0.48 | 0.44 | 0.314 | 0.417 | 0.525 | 0.52 | 0.473 | 0.523 | 0.384
